# Measured values published in ChEMBL document CHEMBL1153164, “Synthesis and evaluation of 3'-azido-2',3'-dideoxypurine nucleosides as inhibitors of human immunodeficiency virus” (Bioorg Med Chem Lett, 2010).
# Legend:
# [1] = test system: Human immunodeficiency virus 1; assay: Antiviral activity against HIV1 LAI infected in human PBM cells after 5 days; format: functional, organism-based; details: Human immunodeficiency virus 1, LAI, PBMC, 120 h
# PBMC = assay: Cytotoxicity against human PBMC after 5 days; format: cell-based; details: 120 h
# CCRF-CEM = assay: Cytotoxicity against human CEM cells after 5 days; format: ADME, cell-based; details: 120 h
# Vero = assay: Cytotoxicity against african green monkey Vero cells after 5 days; format: ADME, cell-based; details: Chlorocebus sabaeus, 120 h
EC50 [1] [µM],EC90 [1] [µM],Structure (SMILES),IC50 (PBMC) [µM],IC50 (CCRF-CEM) [µM],IC50 (Vero) [µM]
1.7,8.5,C#CCNc1nc(N)nc2c1ncn2[C@H]1C[C@H](N=[N+]=[N-])[C@@H](CO)O1,> 100,> 100,> 100
52.5,> 10,CC(C)(CO)Nc1nc(N)nc2c1ncn2[C@H]1C[C@H](N=[N+]=[N-])[C@@H](CO)O1,> 100,> 100,> 100
13.2,> 100,COc1nc(OC)c2ncn([C@H]3C[C@H](N=[N+]=[N-])[C@@H](CO)O3)c2n1,> 100,> 100,> 100
55.3,> 100,COc1nc(Cl)nc2c1ncn2[C@H]1C[C@H](N=[N+]=[N-])[C@@H](CO)O1,> 100,> 100,> 100
15,51.5,[N-]=[N+]=N[C@H]1C[C@H](n2cnc3c(NC4CC4)nc(Cl)nc32)O[C@@H]1CO,35.3,> 100,> 100
2.1,16.2,[N-]=[N+]=N[C@H]1C[C@H](n2cnc3c(NCCO)nc(N)nc32)O[C@@H]1CO,> 100,> 100,> 100
0.16,0.6,[N-]=[N+]=N[C@H]1C[C@H](n2ccc(=O)[nH]c2=O)O[C@@H]1CO [NAVURIDINE],> 100,69.3,26

# The remaining lines, values behind:
Structure (SMILES),EC50 [1] [µM],EC90 [1] [µM],IC50 (PBMC) [µM],IC50 (CCRF-CEM) [µM],IC50 (Vero) [µM]
C=CCNc1ncnc2c1ncn2[C@H]1C[C@H](N=[N+]=[N-])[C@@H](CO)O1,0.3,1.5,51.1,> 100,> 100
CC(CO)Nc1nc(N)nc2c1ncn2[C@H]1C[C@H](N=[N+]=[N-])[C@@H](CO)O1 (some centres not stated),59.9,> 10,> 100,> 100,> 100
C=CCNc1nc(N)nc2c1ncn2[C@H]1C[C@H](N=[N+]=[N-])[C@@H](CO)O1,0.5,4.3,> 100,> 100,> 100
C=CCN(C)c1nc(N)nc2c1ncn2[C@H]1C[C@H](N=[N+]=[N-])[C@@H](CO)O1,0.4,1.5,> 100,27,32
COc1nc(NC2CC2)c2ncn([C@H]3C[C@H](N=[N+]=[N-])[C@@H](CO)O3)c2n1,59.7,> 100,> 100,> 100,> 100
[N-]=[N+]=N[C@H]1C[C@H](n2cnc3c(N)nc(F)nc32)O[C@@H]1CO,45.8,94.7,30.1,30.1,34.4
COc1nc(F)nc2c1ncn2[C@H]1C[C@H](N=[N+]=[N-])[C@@H](CO)O1,> 100,> 100,9.4,> 100,> 100
[N-]=[N+]=N[C@H]1C[C@H](n2cnc3c(N)nc(Cl)nc32)O[C@@H]1CO,50.3,> 100,35.8,> 100,> 100
[N-]=[N+]=N[C@H]1C[C@H](n2cnc3c(Cl)nc(F)nc32)O[C@@H]1CO,2.6,10,7.2,13.3,21.8
[N-]=[N+]=N[C@H]1C[C@H](n2cnc3c(NC4CC4)nc(N)nc32)O[C@@H]1CO,1.5,8.8,> 100,> 100,> 100
CN(C)c1nc(N)nc2c1ncn2[C@H]1C[C@H](N=[N+]=[N-])[C@@H](CO)O1,0.21,1.1,> 100,> 100,> 100
[N-]=[N+]=N[C@H]1C[C@H](n2cnc3c(NCCCCCO)nc(N)nc32)O[C@@H]1CO,86.5,> 10,> 100,> 100,> 100
CN(C)c1nc(Cl)nc2c1ncn2[C@H]1C[C@H](N=[N+]=[N-])[C@@H](CO)O1,> 100,> 100,> 100,> 100,> 100
CNc1nc(Cl)nc2c1ncn2[C@H]1C[C@H](N=[N+]=[N-])[C@@H](CO)O1,> 100,> 100,> 100,> 100,> 100
COc1nc(N)c2ncn([C@H]3C[C@H](N=[N+]=[N-])[C@@H](CO)O3)c2n1,12.4,39.6,35,> 100,> 100
Cc1cn([C@H]2C[C@H](N=[N+]=[N-])[C@@H](CO)O2)c(=O)[nH]c1=O [ZIDOVUDINE],–,0.02,> 100,–,–
